Test results reported in article PMC8803738, “Impact of the mouse model and molar amount of injected ligand on the tissue distribution profile of PSMA radioligands” (European Journal of Nuclear Medicine and Molecular Imaging, 2021).

What was measured:
[1] = system: PC-3 PIP/flu tumor-bearing mice; test: Biodistribution in PC-3 PIP/flu tumor-bearing mice; assay type: in vivo, mouse; conditions: for AUCTu(0→48 h)-to-AUCKi(0→48 h) ratio: PC-3 PIP model (female mice); for AUCTu(0→48 h)-to-AUCKi(0→48 h) ratio / AUC0→48h, Kidneys / AUC0→48h, PC-3 PIP tumor: average ± SE, non-decay-corrected
Method: (§1) Male BALB/c nude mice were subcutaneously inoculated on the right shoulder with LNCaP tumor cells (5 × 10^6 cells in PBS mixed with Matrigel (20 mg/mL, BD Biosciences) at a ratio of 3 to 1 (v/v) to a total volume of 200 μL per mouse). Biodistribution and SPECT/CT imaging studies with both tumor xenograft models were performed when the tumors reached a volume of 100–300 mm^3.
(§2) [^177Lu]Lu-Ibu-DAB-PSMA (5 MBq, 100 µL) and [^177Lu]Lu-PSMA-617 (5 MBq, 100 µL) were diluted in saline containing 0.05% bovine serum albumin (BSA) to prevent adherence of the radioligands to the syringe. The radioligands were intravenously injected at a ligand amount of 0.05 nmol or 1.0 nmol per mouse. The number of mice per setting was commonly n = 3 and, in case of inconclusive results, additional mice up to a total of n = 6 were included. The mice were sacrificed at 4 h, 24 h, or 48 h post injection (p.i.) and selected tissues and organs were collected, weighed, and counted in a γ-counter (Supplementary Material). The data sets were analyzed for significance using a one-way ANOVA with Sidak’s multiple comparison post-test using the GraphPad Prism software (version 8). A p value of < 0.05 was considered statistically significant. Tumor-to-kidney and tumor-to-blood ratios were calculated for all investigated timepoints after injection of each radioligand.
Time-activity curves over the first 48 h after injection of the radioligands were determined for the PC-3 PIP tumor, the LNCaP tumor, and the kidneys of the corresponding xenograft model based on non-decay-corrected time-dependent biodistribution data obtained at 4 h, 24 h, and 48 h p.i. This allowed calculating the areas under the curve (AUC0→48 h) using the GraphPad Prism software (version 8) (Supplementary Material). The tumor-to-kidney AUC0→48 h ratios were calculated for both xenograft models.
3. Biodistribution studies
Purpose: The impact of the tumor mouse model and the injected ligand amount on the biodistribution of [177Lu]Lu-Ibu-DAB-PSMA and [177Lu]Lu-PSMA-617 was investigated.
Methods: The biodistribution studies were conducted with either PC-3 PIP/flu or LNCaP tumor-bearing mice injected with either 0.05 nmol or 1.0 nmol of radioligand per mouse, whereas the applied activity was kept constant for each setting. The results were decay-corrected and the values indicated as average ± SD obtained from each gr oup of mice (n = 3−6) and listed as percentage of injected activity per gra m tissue [% IA/g].
Results: The results are listed below (Table S1–S4) and described and discussed in the main article.
Table S1 Decay -corrected biodistribution data of [177Lu]Lu-Ibu-DAB-PSMA in PC-3 PIP/flu tumor-bearing mice injected with either 0. 05 nmol or 1.0 nmol per mouse. The values are indicated as average ± SD obtained from each group of mice (n = 3−6) and listed as percentage of injected activity per gram […]
Dissection time 4 h p.i. 24 h p.i. 48 h p.i. […]
a Data obtained with 1.0 nmol [177Lu]Lu-Ibu-DAB-PSMA were reproduced from Deberle et al. […]
radioligands in order to be able to judge the changes in activity uptake in the tumor and kidney s as a consequence of the tumor model and the injected amount of ligand, respectively.
Methods: T he time-activity curves over the first 48 h after injection were determined for the PC-3 PIP tumor, the LNCaP tumor as well as for the kidneys of each tumor mouse model based on non-decay - corrected time-dependent biodistribution data. For these calculations, the radioligand uptake in the tumors and the kidney s at t = 0 h p.i. was set to 0% IA/g.

[2] = system: PC-3 PIP/flu or LNCaP tumor-bearing mice; test: Biodistribution, comparison or ranges over both PC-3 PIP and LNCaP tumor mouse models; assay type: in vivo
Method: as §1, §2

[3] = PC-3 PIP model, 4 h p.i., 0.05 nmol
[4] = PC-3 PIP model, 24 h p.i., 0.05 nmol
[5] = PC-3 PIP model, 48 h p.i., 0.05 nmol

Method for PC-3 PIP tumor cells: The cells were cultured in RPMI-1640 cell culture medium supplemented with 10% fetal calf serum, L-glutamine, and antibiotics. Puromycin (2 μg/mL) was used to maintain PSMA expression as previously reported [24]. […] The cells were cultured under standard cell culture conditions in RPMI-1640 medium supplemented with 10% fetal calf serum, L-glutamine, antibiotics, and pyruvate (1 mM).
In brief, PC-3 PIP and LNCaP tumor cells were seeded in 12-well plates (3 × 10^5 cells and 1 × 10^6 cells in 2 mL medium/well, respectively) and incubated overnight. Both PSMA radioligands were applied at variable molar concentrations (0.75–500 nM) but at a constant activity concentration of 37.5 kBq/mL. The tumor cells were incubated for 4 h followed by washing steps and detachment of the cells for counting in a γ-counter (Perkin Elmer, Wallac Wizard 1480). The studies were performed in three independent experiments of six replicates. Statistical analysis was performed using a two-way ANOVA with Tukey’s and Sidak’s multiple comparison post-test in Graph Pad Prism (version 8) for different concentrations of the same radioligand and for the two radioligands at the same concentration, respectively. A p value of < 0.05 was considered statistically significant.
Both tumor cell types were kept in a humidified atmosphere at 37 °C and 5% CO2. Routine cell culture
was performed twice a week using PBS/EDTA (2 mM) and trypsin for cell detachment.
internalization of the radioligands into PC-3 PIP and LNCaP tumor cells.
Methods: Uptake and internalization studies were performed with PC-3 PIP and LNCaP tumor cells
using variable concentrations of the respective ligand but constant activity concentrations. PC-3 PIP
and LNCaP cells were seeded in 12-well plates and incubated at 37 °C and 5% CO2 overnight.
Experiments with LNCaP cells were performed with poly -L-lysine-coated well plates to ensure better
cell adherence. The radioligand solution was diluted using saline containing 0.05% bovine serum
albumin (BSA) to avoid adherence to the vial. A defined volume of 25 µL (corresponding to 37.5 kBq) […]

CC(C)Cc1ccc(C(C)C(=O)NC(CCN)C(=O)NCCCCC(NC(=O)CN2CCN(CC(=O)O)CCN(CC(=O)O)CCN(CC(=O)O)CC2)C(=O)NCC2CCC(C(=O)NC(Cc3ccc4ccccc4c3)C(=O)NCCCCC(NC(=O)NC(CCC(=O)O)C(=O)O)C(=O)O)CC2)cc1 (centres unmarked) [[^177Lu]Lu-Ibu-DAB-PSMA, metal not drawn]
PC-3 PIP tumor uptake, low vs high ligand amount ([1]; 0.05 nmol vs 1.0 nmol, 24 h and 48 h p.i.): 1.5–1.6 fold
AUCTu(0→48 h)-to-AUCKi(0→48 h) ratio ([1]; 0.05 nmol): 3.2 ± 0.5
AUCTu(0→48 h)-to-AUCKi(0→48 h) ratio ([1]; 1.0 nmol): 5.6 ± 0.7
AUC0→48h, Kidneys ([1]; PC-3 PIP model, 0.05 nmol): 945 ± 97 % IA/g*h
AUC0→48h, PC-3 PIP tumor ([1]; PC-3 PIP model, 0.05 nmol): 3027 ± 206 % IA/g*h
Increase of tumor-to-kidney AUC0→48 h ratio for high vs low molar amount of injected ligand ([1]; PC-3 PIP model, 1.0 nmol vs 0.05 nmol): 1.8 fold
AUC0→48h, Kidneys ([1]; PC-3 PIP model, 1.0 nmol): 388 ± 23 % IA/g*h
AUC0→48h, PC-3 PIP tumor ([1]; PC-3 PIP model, 1.0 nmol): 2166 ± 153 % IA/g*h
Tissue distribution, Blood [1, 3]: 1.3 ± 0.3 % IA/g
Tissue distribution, Bone [1, 3]: 0.29 ± 0.06 % IA/g
Tissue distribution, Heart [1, 3]: 0.54 ± 0.12 % IA/g
Tissue distribution, Intestines [1, 3]: 0.29 ± 0.05 % IA/g
Tissue distribution, Kidneys [1, 3]: 69 ± 10 % IA/g
Tissue distribution, Liver [1, 3]: 1.1 ± 0.1 % IA/g
Tissue distribution, Lung [1, 3]: 1.3 ± 0.3 % IA/g
Tissue distribution, Muscle [1, 3]: 0.22 ± 0.06 % IA/g
Tissue distribution, PC-3 PIP tumor [1, 3]: 81 ± 4 % IA/g
Tissue distribution, PC-3 flu tumor [1, 3]: 0.67 ± 0.10 % IA/g
Tissue distribution, Salivary glands [1, 3]: 0.69 ± 0.18 % IA/g
Tissue distribution, Spleen [1, 3]: 1.9 ± 0.4 % IA/g
Tissue distribution, Stomach [1, 3]: 0.33 ± 0.09 % IA/g
Tumor-to-blood ratio [1, 3]: 65 ± 20
Tumor-to-kidney ratio [1, 3]: 1.2 ± 0.2
Tumor-to-liver ratio [1, 3]: 74 ± 8
Tissue distribution, Blood [1, 4]: 0.23 ± 0.03 % IA/g
Tissue distribution, Bone [1, 4]: 0.13 ± 0.04 % IA/g
Tissue distribution, Heart [1, 4]: 0.15 ± 0.02 % IA/g
Tissue distribution, Intestines [1, 4]: 0.11 ± 0.03 % IA/g
Tissue distribution, Kidneys [1, 4]: 5.5 ± 1.0 % IA/g
Tissue distribution, Liver [1, 4]: 0.54 ± 0.13 % IA/g
Tissue distribution, Lung [1, 4]: 0.27 ± 0.04 % IA/g
Tissue distribution, Muscle [1, 4]: < 0.10 % IA/g
Tissue distribution, PC-3 PIP tumor [1, 4]: 78 ± 14 % IA/g
Tissue distribution, PC-3 flu tumor [1, 4]: 0.31 ± 0.05 % IA/g
Tissue distribution, Salivary glands [1, 4]: 0.21 ± 0.02 % IA/g
Tissue distribution, Spleen [1, 4]: 0.42 ± 0.09 % IA/g
Tissue distribution, Stomach [1, 4]: 0.11 ± 0.02 % IA/g
Tumor-to-blood ratio [1, 4]: 341 ± 48
Tumor-to-kidney ratio [1, 4]: 14 ± 2
Tumor-to-liver ratio [1, 4]: 149 ± 34
Tissue distribution, Blood [1, 5]: 0.13 ± 0.03 % IA/g
Tissue distribution, Bone [1, 5]: < 0.10 % IA/g
Tissue distribution, Heart [1, 5]: < 0.10 % IA/g
Tissue distribution, Intestines [1, 5]: < 0.10 % IA/g
Tissue distribution, Kidneys [1, 5]: 2.3 ± 0.4 % IA/g
Tissue distribution, Liver [1, 5]: 0.28 ± 0.03 % IA/g
Tissue distribution, Lung [1, 5]: 0.18 ± 0.04 % IA/g
Tissue distribution, Muscle [1, 5]: < 0.10 % IA/g
Tissue distribution, PC-3 PIP tumor [1, 5]: 58 ± 9 % IA/g
Tissue distribution, PC-3 flu tumor [1, 5]: 0.17 ± 0.01 % IA/g
Tissue distribution, Salivary glands [1, 5]: 0.11 ± 0.02 % IA/g
Tissue distribution, Spleen [1, 5]: 0.25 ± 0.05 % IA/g
Tissue distribution, Stomach [1, 5]: 0.12 ± 0.08 % IA/g
Tumor-to-blood ratio [1, 5]: 445 ± 51
Tumor-to-kidney ratio [1, 5]: 26 ± 2
Tumor-to-liver ratio [1, 5]: 205 ± 10
Tumor accumulation in PC-3 PIP vs LNCaP tumor xenografts ([2]; 0.05 nmol): approximately fourfold
Tumor uptake in PC-3 PIP vs LNCaP tumor xenografts ([2]; 1.0 nmol): 6 fold
Kidney retention, low vs high amount of injected ligand ([2]; 4 h p.i., 0.05 nmol vs 1.0 nmol): about fourfold
Kidney retention ([2]; 4 h p.i., high amount of injected ligand (1.0 nmol), range over both mouse models (PC-3 PIP data reproduced from earlier papers)): 16–19 % IA/g
Kidney retention ([2]; 4 h p.i., low amount of injected ligand (0.05 nmol), range over both mouse models): 58–69 % IA/g
Renal retention of activity ([2]; 24 h p.i., irrespective of the injected ligand amount, range over both mouse models): 5.5–6.8 % IA/g
Absolute amount of internalized radioligand (PC-3 PIP tumor cells; 0.00075 µM): 14–21 % of total added activity
Internalized fraction (PC-3 PIP tumor cells; 4 h): 23–28 % of total uptake
Cell uptake (PC-3 PIP tumor cells; 4 h, 0.5 µM): ≤ 2%
